Data from ChEMBL document CHEMBL3769307, “Selective inhibitors of phosphodiesterases: therapeutic promise for neurodegenerative disorders” (Medchemcomm, 2015).

molecular target: High affinity 3',5'-cyclic-AMP phosphodiesterase 7A (Homo sapiens, UniProt Q13946); experiment: Inhibition of PDE7A (unknown origin)
Sequence (Q13946 whole entry): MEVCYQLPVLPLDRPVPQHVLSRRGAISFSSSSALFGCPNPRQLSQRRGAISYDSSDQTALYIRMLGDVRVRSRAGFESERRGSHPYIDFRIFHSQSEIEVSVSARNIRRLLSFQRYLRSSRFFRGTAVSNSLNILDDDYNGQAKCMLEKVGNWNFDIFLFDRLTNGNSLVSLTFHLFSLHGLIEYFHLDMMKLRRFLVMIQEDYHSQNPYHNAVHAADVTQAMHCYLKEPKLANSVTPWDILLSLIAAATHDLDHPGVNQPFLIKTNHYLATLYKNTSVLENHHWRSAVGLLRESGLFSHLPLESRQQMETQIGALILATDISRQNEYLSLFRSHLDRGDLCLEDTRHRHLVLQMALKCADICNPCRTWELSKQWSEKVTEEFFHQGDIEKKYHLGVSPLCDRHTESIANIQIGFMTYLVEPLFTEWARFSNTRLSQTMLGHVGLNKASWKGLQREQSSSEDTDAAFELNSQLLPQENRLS

| SMILES | IC50 |
| --- | --- |
| O=c1c2ccccc2[nH]c(=S)n1-c1ccccc1 | 5500 nM |

test system: not listed separately; experiment: Inhibition of PDE9 (unknown origin); design: species or system Homo sapiens

| IC50 | SMILES |
| --- | --- |
| 55 nM | C[C@H](Cc1nn2c(-c3ccccc3Cl)ncc2c(=O)[nH]1)C(F)(F)F |

test system: not listed separately; experiment: Inhibition of cGMP stimulated pig PDE2A; design: species or system Sus scrofa

| IC50 | SMILES |
| --- | --- |
| 2000 nM | CCCCCC[C@H]([C@H](C)O)n1cnc2c(N)ncnc21 (relative stereo) [(+)-EHNA] |

test system: not listed separately; experiment: Inhibition of bovine PDE2; design: species or system Bos taurus

| IC50 | SMILES |
| --- | --- |
| 2 nM | COc1ccc(Cc2nc(O)c3c(C)nc([C@@H](CCCc4ccccc4)[C@@H](C)O)n3n2)cc1OC |

test system: not listed separately; experiment: Inhibition of cGMP activated PDE2 (unknown origin); design: species or system Homo sapiens

| IC50 | SMILES |
| --- | --- |
| 0.6 nM | COc1ccc(Cc2nc3c(ncn3C(CCCc3ccccc3)C(C)=O)c(=O)[nH]2)cc1OC (centres undefined) |
| 700 nM | CCCCCC[C@H]([C@H](C)O)n1cnc2c(N)ncnc21 (relative stereo) [(+)-EHNA] |

molecular target: cGMP-specific 3',5'-cyclic phosphodiesterase (Homo sapiens, UniProt O76074); experiment: Inhibition of PDE5 (unknown origin)

| IC50 | SMILES |
| --- | --- |
| 0.27 nM | COc1ccc(CNc2c(CO)cnc3c(NCCN(C)C)cc(C#N)cc23)cc1Cl |
| 0.27 nM | COc1ccc(CNc2c(CO)cnc3c(N4CCOCC4)cc(C#N)cc23)cc1Cl |
| 0.27 nM | COc1ccc(CNc2c(CO)cnc3c(NC4CC4)cc(C#N)cc23)cc1Cl |
| 0.27 nM | CCNc1cc(C#N)cc2c(NCc3ccc(OC)c(Cl)c3)c(CO)cnc12 |
| 0.27 nM | COc1ccc(CNc2c(CO)cnc3c(N(C)C)cc(C#N)cc23)cc1Cl |

molecular target: Phosphodiesterase 4 (Homo sapiens, UniProt P27815+Q08499+Q07343+Q08493); experiment: Inhibition of PDE4 (unknown origin); format: protein assay

| IC50 | SMILES |
| --- | --- |
| 0.54 nM | O=C(NC1CC1)c1cn(-c2cccc(-c3cccc([C@@H]4C[C@H]4C(=O)O)c3)c2)c2ncccc2c1=O |
| 4.6 nM | O=C(NC1CC1)c1cn(-c2cccc(-c3ccccc3[C@@H]3C[C@H]3C(=O)O)c2)c2ncccc2c1=O (relative stereo) |
| 0.52 nM | O=C(NC1CCC1)c1cn(-c2cccc(-c3ccc([C@@H]4C[C@H]4C(=O)O)cc3)c2)c2ncccc2c1=O (relative stereo) |
| 0.35 nM | O=C(NCC1CC1)c1cn(-c2cccc(-c3ccc([C@@H]4C[C@H]4C(=O)O)cc3)c2)c2ncccc2c1=O (relative stereo) |
| 1.6 nM | O=C(NC1CC1)c1cn(-c2cccc(-c3ccc([C@@H]4C[C@@H]4C(=O)O)cc3)c2)c2ncccc2c1=O (relative stereo) |
| 0.51 nM | O=C(NCC(F)(F)F)c1cn(-c2cccc(-c3ccc([C@@H]4C[C@H]4C(=O)O)cc3)c2)c2ncccc2c1=O (relative stereo) |
| 32 nM | CC(C)(C)NC(=O)c1cn(-c2cccc(-c3ccc([C@@H]4C[C@H]4C(=O)O)cc3)c2)c2ncccc2c1=O (relative stereo) |
| 17 nM | O=C(NC1(O)CC1)c1cn(-c2cccc(-c3ccc([C@@H]4C[C@H]4C(=O)O)cc3)c2)c2ncccc2c1=O (relative stereo) |
| 0.53 nM | O=C(NC1CC1)c1cn(-c2cccc(-c3ccc([C@@H]4C[C@@H]4C(=O)O)c(F)c3)c2)c2ncccc2c1=O (relative stereo) |
| 0.57 nM | O=C(NC1CC1)c1cn(-c2cccc(-c3ccc([C@@H]4C[C@H]4C(=O)O)cc3)c2)c2ncccc2c1=O (relative stereo) |
| 0.58 nM | CC1(NC(=O)c2cn(-c3cccc(-c4ccc([C@@H]5C[C@H]5C(=O)O)cc4)c3)c3ncccc3c2=O)CC1 (relative stereo) |

More lines, now with the values behind:

| SMILES | IC50 |
| --- | --- |
| CC(C)(Cc1ccc(-c2cccc(-n3cc(C(=O)NC4CC4)c(=O)c4cccnc43)c2)cc1)C(=O)O | 0.88 nM |
| O=C(NC1CC1)c1cn(-c2cccc(-c3ccc([C@@H]4C[C@H]4c4nnn[nH]4)cc3)c2)c2ncccc2c1=O (relative stereo) | 0.55 nM |
| O=C(NC1CC1)c1cn(-c2cccc(C#Cc3ccc[n+]([O-])c3)c2)c2ncccc2c1=O [MK-0873] | 5.1 nM |
| CC(C)(CC(=O)O)c1ccc(-c2cccc(-n3cc(C(=O)NC4CC4)c(=O)c4cccnc43)c2)cc1 | 0.85 nM |
| CC(C)(c1cc(-c2cccc(-c3ccc([C@@H]4C[C@H]4C(=O)O)cc3)c2)c2ncccc2c1)S(C)(=O)=O (relative stereo) | 0.32 nM |
| CCCCCC[C@H]([C@H](C)O)n1cnc2c(N)ncnc21 (relative stereo) [(+)-EHNA] | 1700 nM |

molecular target: 3',5'-cyclic-AMP phosphodiesterase 4D (Homo sapiens, UniProt Q08499); experiment: Inhibition of PDE4D3 (unknown origin)
Sequence (Q08499 whole entry): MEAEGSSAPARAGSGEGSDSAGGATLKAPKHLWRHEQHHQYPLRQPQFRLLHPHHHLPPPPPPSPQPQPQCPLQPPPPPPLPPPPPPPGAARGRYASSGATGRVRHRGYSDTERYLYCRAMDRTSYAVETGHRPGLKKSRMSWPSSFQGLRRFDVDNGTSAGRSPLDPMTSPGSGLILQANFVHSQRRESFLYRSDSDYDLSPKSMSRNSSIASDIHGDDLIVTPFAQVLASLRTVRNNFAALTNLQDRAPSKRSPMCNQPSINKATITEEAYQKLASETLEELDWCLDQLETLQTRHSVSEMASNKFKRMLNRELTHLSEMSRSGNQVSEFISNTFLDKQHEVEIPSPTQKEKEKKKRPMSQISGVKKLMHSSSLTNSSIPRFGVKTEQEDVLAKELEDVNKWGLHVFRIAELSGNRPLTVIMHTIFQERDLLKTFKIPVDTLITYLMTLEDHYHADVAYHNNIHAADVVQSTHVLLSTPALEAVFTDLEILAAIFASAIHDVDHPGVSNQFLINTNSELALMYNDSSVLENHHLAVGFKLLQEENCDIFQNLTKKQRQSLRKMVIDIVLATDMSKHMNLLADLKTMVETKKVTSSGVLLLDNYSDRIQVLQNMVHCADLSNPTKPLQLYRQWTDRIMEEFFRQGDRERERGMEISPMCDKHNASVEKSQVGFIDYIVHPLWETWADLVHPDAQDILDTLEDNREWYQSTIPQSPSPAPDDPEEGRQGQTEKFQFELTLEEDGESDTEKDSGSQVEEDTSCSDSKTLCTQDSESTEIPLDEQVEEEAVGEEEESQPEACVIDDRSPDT

| IC50 | SMILES |
| --- | --- |
| 150 nM | COc1ccc([C@@H]2CNC(=O)[C@@H](Cc3cccc(C)c3)C2)cc1OC1CCCC1 |
